The text below walks through data of patent US5202266A, “25-hydroxy vitamin D3 derivatives, process for their production, and assay method using the same” (Asahi Kasei Kogyo Kabushiki Kaisha, priority 1987, dated 1993).

Series [1] concerns Anti-25-hydroxy vitamin D3 rabbit serum. Description: Radio immunoassay standard curve of 25-hydroxy vitamin D3 using the labeled derivative as tracer. Conditions: RIA; for sensitivity of assay, monoiodine vs diiodine [125I] labeling: FIG. 3; for standard curve result by methylene chain length n in R1: FIG. 4, n=1, n=2, n=3 compared. It counts as binding. As to the method: A standard ethanol solution of 25-hydroxy vitamin D3 (256 pg/20 μl) was diluted stepwise by two-fold dilution to prepare 128 pg/20 μl, 64 pg/μl, 32 pg/20 μl, 16 pg/20 μl, 8 pg/20 μl, 4 pg/20 μl and 2 pg/20 μl samples.
Samples (20 μl) of each concentration hereinabove were pipetted into three tubes. Ethanol solutions, each 20 μl, of radioisotope iodine [^125 I]-labeled 25-hydroxy vitamin D3 derivative which contains as an antioxidant tocopherol was pipetted into each tube (20 μl, ca. 13,000 cpm).
Anti-25-hydroxy vitamin D3 rabbit serum diluted with tris buffer (approx. 15,000 dilution) pH 8.6, each 1 ml, was added to each tube. Each mixture in the tubes was stirred in a BORTEX mixer and allowed to stand at 5° C. overnight (20-24 hours). Glycine buffer (pH 8.6) suspending a mixture of dextran (T70) and active charcoal (1:10), each 300 μl) was added into the reaction tubes, and each was stirred by a BORTEX mixer and incubated at 5° C. for 1 hour. B-F separation was performed by centrifugation at 3,000 r.p.m. for 10 mins., and each supernatant solution (1 ml) was measured by an Autowell γ-counter for 1 min. The ratio of binding is calculated by the following equation: [formula] wherein (B) is the count number in each tube, (BL) is the count number measured by using 25-hydroxy vitamin D3 (1,000 pg/20 μl) in place of isotope ^125 I-labeled 25-hydroxy vitamin D3 derivative, and (Bo) is the count number measured by using 25-hydroxy vitamin D3 at zero concentration.
A standard curve was prepared by using tritium [^3 H]-labeled 25-hydroxy vitamin D3 derivative (26, 27-methyl-^3 H) as in the case of the [^125 I]-labeled derivative in (1) hereinabove.
Monoiodine [^125 I] labeling and diiodine [^125 I] labeling were compared according to the same method as hereinabove. In FIG. 3, -- -- -- indicates monoiodine [^125 I] labeling, and -- -- -- indicates diiodine [^125 I] labeling.
In formula [IV], assays using compounds having methylene R1 [--CH2)n--] wherein n=1, n=2 and n=3, are compared with each other.

Series [2] is described as follows: Storage stability of [125I]-labeled derivative, checked by CPBA standard curve using DBP. It counts as physicochemical. Conditions: 50% H2O-ethanol solution, -20° C., argon atmosphere, day 0, 21 and 49; FIG. 6. As to the method:
A standard ethanol solution of 25-hydroxy vitamin D3 (1,024 pg/20 μl) was diluted stepwise by two-fold dilutions to prepare 32 pg/20 μl, 16 pg/20 μl, 8 pg/20 μl, 4 pg/20 μl, 2 pg/20 μl and 1 pg/20 μl.
Samples (20 μl) of each concentration hereinabove were pipetted into two tubes. Aliquots of an ethanol solution, each 20 μl, of radioisotope iodine [125I]-labeled 25-hydroxy vitamin D3 derivative, containing as an antioxidant tocopherol, were pipetted into each tube (20 μl, ca. 30,000 cpm) DBP diluted with tris buffer, pH 8.6 (approx. 500-1,000 dilution of DBP fraction in (1) hereinabove) each 500 μl, was stirred and allowed to stand at 4° C. for 16 hours.
Glycine buffer, pH 8.6, suspending a mixture of dextran (T70) and active charcoal (1:10) (each 30 μl), was added into the reaction tubes, stirred and incubated at 4° C. for 30 mins. B-F separation was made by centrifugation at 3,000 r.p.m. for 10 mins. at 4° C., and each supernatant solution 500 μl was measured by an Autowell γ-counterfor 1 min. The ratio of binding is calculated by the following equation: [formula] wherein (B) is the count number in each tube, (NSB)-- is the count number measured by using 25-hydroxy vitamin D3 (1,024 pg/20 μl) instead of ^12 5I-labeled 25-hydroxy vitamin D3 derivative and (Bo) is the count number measured by using 25-hydroxy vitamin D3 at zero concentration.
A 50% H2 O-ethanol solution of [^125 I] […]

SMILES strings stand for the structures.

With `C=C1CC[C@H](OC(=O)CCNC(=O)CCc2ccc(O)c([125I])c2)C/C1=C/C=C1\CCC[C@]2(C)[C@@H]([C@H](C)CCCC(C)(C)O)CC[C@@H]12` [Example 4, 25-hydroxy vitamin D3 --3β--O--{3-[N-3-(4-hydroxy-3-iodo [^125 I]phenyl)propionyl]amino propionate}], the “sensitivity of assay, monoiodine vs diiodine [125I] labeling” value in series [1] is recorded as “almost the same sensitivity”. Further, in series [2], the “stability: change of standard curve after storage” value is given as “no changes of the standard curve within a range of 2-32 pg/Test were observed”. As to `C=C1CC[C@H](OC(=O)CCNC(=O)CCc2cc([125I])c(O)c([125I])c2)C/C1=C/C=C1\CCC[C@]2(C)[C@@H]([C@H](C)CCCC(C)(C)O)CC[C@@H]12` [Example 5], in series [1], the “sensitivity of assay, monoiodine vs diiodine [125I] labeling” value is “almost the same sensitivity”. Also, the “stability: change of standard curve after storage” value in series [2] is “no changes of the standard curve within a range of 2-32 pg/Test were observed”. In the case of `C=C1CC[C@H](OC(=O)CCNC(=O)CCc2ccc(O)c([125I])c2)C/C1=C/C=C1\CCC[C@]2(C)[C@@H]([C@H](C)CCCC(C)(C)O)CC[C@@H]12` [n=2], in series [1], the “standard curve result by methylene chain length n in R1” value is given as “good results as compared with n=1”. Same read-out and setting: then `C=C1CC[C@H](OC(=O)CCCNC(=O)CCc2ccc(O)c([125I])c2)C/C1=C/C=C1\CCC[C@]2(C)[C@@H]([C@H](C)CCCC(C)(C)O)CC[C@@H]12` [n=3], with “good results as compared with n=1”.
